The IC50 is the midpoint of a concentration-inhibition curve.

Holding throughout (assay type): cell-based
Assay [1] relates to LPS-induced IL-6 production in human whole blood. Briefly: IL-6 human whole blood (HWB) assay, LPS-stimulated, HTRF detection. The following applies: 1 ng/ml LPS, 4 hours. (In general: In TR-FRET formats the signal depends on donor and acceptor labels being close together.)
The subject of assay [2] is C4-2AR-F876L cells, AR(+). Briefly: CRPC cell proliferation assay (CellTiter-Glo), C4-2AR-F876L. The following applies: CTG at 96h. The protocol:
(§1) Castrate-Resistant Prostate Cancer (CRPC) Cell Proliferation Assay • Cells were seeded into 96-well plates at 2,000-10,000 cells/well in 100 uL medium. Four AR(+) cell lines (LnCaP, C4-2 (parental), C4-2AR-WT and C4-2AR—F876L) and one AR(−) cell line (DU-145) were studied. Compound treated cells were analyzed for cell density at 96h, using CellTiter-Glo® (CTG) reagent (Promega).
On the technique in general: In ATP-based viability assays light output follows the ATP content of the culture.

The subject of the next assay is DU-145 cells, AR(−). Briefly: CRPC cell proliferation assay (CellTiter-Glo), DU-145. The note with it: CTG at 96h. The protocol: as §1
Another assay concerns MM1.S cells. Kind of assay: MM1.S cell proliferation assay (CellTiter-Glo). As to the method: MM1.S (dexamethasone sensitive) and OPM-2 cells were purchased from ATCC and maintained in RPMI-1640 medium with 10% fetal bovine serum at 37 degrees, 5% CO2. Cells were seeded at 10,000 cells/well in 100 uL medium. The following day compounds or control vehicle (DMSO) were added at indicated concentrations in 10 ul volume. Compound treated OPM-2 cells and MM1.S cell were analyzed for cell density at 72h and 96h, respectively, using CellTiter-Glo® (CTG) reagent (Promega). The CTG assay measures the amount of ATP present, which indicates the number of viable cells in culture.

In assay [3] the test system is C4-2 (parental) cells, AR(+). Kind of assay: CRPC cell proliferation assay (CellTiter-Glo), C4-2. The following applies: CTG at 96h. As to the method:
as §1

As for `CCC(=O)N(C)c1ccc2nc(NCCC(=O)O)c(=O)n([C@@H](CC)c3ccccc3)c2n1` [Example 10, N-{6-[methyl(propanoyl)amino]-3-oxo-4-[(1S)-1-phenylpropyl]-3,4-dihydropyrido[2,3-b]pyrazin-2-yl}-beta-alanine], the IC50 worked out at 530 nM in assay [1]; 560 nM in assay [2]; 1880 nM in the assay on DU-145 cells, AR(−) (Homo sapiens); 2 nM in the assay on MM1.S cells (Homo sapiens, MM1.S, CTG at 96h); 500 nM in assay [3]. In addition, the “Max % Inh” value in assay [2] is reported as 85%; with DU-145 cells, AR(−), 55%; in assay [3], 87%. The “inhibition of proliferation of MM1.S cells” value in the assay on MM1.S cells (dose dependent manner, FIG. 1.A) was “inhibited proliferation”.

The values are drawn from patent US20160368919A1, “NOVEL PYRIDINE PYRAZINONES AS BET-FAMILY BROMODOMAIN INHIBITORS” (Pfizer Inc., priority 2015, published 2016).
